“Also recorded” adds a separate entry of the source.
Legend:
rotofers = test: Alpha-pinene/propylene glycol in algal medium, rotifer control (Example 4); assay type: in vivo; conditions: approx. 1:1 (w/w) alpha-pinene and propylene glycol, equal to or less than 136 mg/L; present-tense example
Description: (§1) An approximate 1:1 (w/w) solution of alpha-pinene and propylene glycol is made. Alpha-pinene is the active agent, while propylene glycol is a surfactant. This mixture is added to the algal medium at a concentration equal to or less than 136 mg/L. Daphnia magna and rotofers are controlled in the aquaculture.

Daphnia magna = test: Alpha-pinene/propylene glycol in algal medium, Daphnia control (Example 4); assay type: in vivo; conditions: approx. 1:1 (w/w) alpha-pinene and propylene glycol, equal to or less than 136 mg/L; present-tense example
Description: as §1

Chlorella sp. [1] = test: Biocide toxicity tests in test tubes, algal optical density at 680 nm (Example 5); assay type: cell-based; conditions: for mean optical density on day 12 compared with control group: 20 mg/L methoprene, 2% acetone respectively, P>0.05; for mean optical density on day 12 compared with control group / inhibition of algal growth: 2.0 mg/L resmethrin; for inhibition of algal growth: applied without rotifers, experimental concentrations 20 mg/L methoprene, 2% acetone; for mean optical density at day 12 compared with control: printed P>0.5
Description: 27 ml of Chlorella in Alga-Gro Freshwater Medium were added to 300 ml modified Bristol medium and allowed to grow without agitation for 30 hours. The 327 ml of algal solution were then expanded into a total of 700 ml modified Bristol medium and allowed to grow without agitation. After 42 hours, the 700 ml of algal solution were split up into 60 individual test tubes. Each test tube received 10 ml of algal solution, along with 1 ml of rotifer solution (or media) and 4 ml of reagent solution, for a total of 15 ml.
An initial Brachionus sp. population of about 30 individuals was cultured without agitation in one 60-ml jar for 3 days. Then, 1 ml of rotifer solution was pipetted into each of the 40 test tubes designated for rotifer toxicity assessment.
The 60 test tubes represented 12 groups, each with five replicates. The test group names and conditions are as follows (Table 4). The group “20M−R” contained algae, 20 mg/l of methoprene, and no rotifers. The group “20M+R” contained algae, 20 mg/l of methoprene, and rotifers. The group “5M+R” contained algae, 5 mg/l of methoprene, and rotifers. The group “5M+A+R” contained 5 mg/l of methoprene, 2% acetone (v/v), and rotifers. The group “2R−R” contained algae, 2.0 mg/I of resmethrin, and no rotifers. The group “2R+R” contained algae, 2.0 mg/l of resmethrin, and rotifers. The group “5R+R” contained algae, 0.5 mg/l of resmethrin, and rotifers. The group “5R+A+R” contained 0.5 mg/l of resmethrin, 2% acetone, rotifers. The group “A−R” contained algae, 2% acetone and no rotifers. The group “A+R” contained algae, 2% acetone and rotifers. The group “R” contained algae and rotifers without any extra reagents. The group “C” contained algae in media only.
Organisms were cultured and assessed for a test period of 12 days. During the test period, organisms were subjected to agitation at 60 rpm and a photoperiod of 12 hr light, 12 hr dark. The day that organisms were combined into the 60 test tubes was designated as day 0. A 1000-μl sample was removed from each tube for optical density analysis every other day, beginning on day 0. The optical densities of these samples were determined spectrometrically at 680 nm. On days 0, 6, and 12, a 250-μl sample was removed from each of the 1000-μl samples from rotifer-containing groups. Rotifers per 250-μl sample were counted with a dissecting microscope.
The optical densities of each of the 12 groups in the pesticide toxicity tests were averaged and plotted on a time plot (FIGS. 3 & 4). Standard deviation values and average algal growth rates were calculated for each group and day. T-tests were performed to determine the statistical significance of difference between relevant means. A linear regression model was used to compare the optical density averages of the “20M−R” group and the “C” control group. A linear regression of time against optical density in the control group of tubes was compared with a logarithmic regression model of time against optical density in the control flask. (FIG. 5).

rotifers [2] = conditions: at concentrations found in this study to be nontoxic to algae; literature findings; cited from earlier work
Chlorella sp. [3] = test: Methoprene with acetone added to Chlorella, growth (Example 2); assay type: cell-based; conditions: methoprene 20 mg/L with acetone 2% v/v
Description: Methoprene at 20 mg/L with acetone at 2% v/v was added to Chlorella sp.

Chlorella sp. [4] = test: 12-day mason jar test, algal optical density at 680 nm, algae without rotifers (Example 1); assay type: cell-based; conditions: A+M: 30 mg/L methoprene, no rotifers
Description: (§2) Algae were expanded into 500 ml of 20% artificial seawater in mason jars and subjected to five treatment conditions. Five replicates were conducted for each of the conditions. The test conditions were: control (algae only), rotifers without methoprene (A+R), methoprene without rotifers (A+M) methoprene with rotifers (A+R+M), and double concentration methoprene with rotifers (A+R+2M). In the mason jars containing solutions “with rotifers”, 9 mL of media were replaced with rotifer solution. In the A+M and A+R+M groups, the solution was modified to give a methoprene concentration of 30 mg/L. In the A+R+2M group, the solution was modified to give a methoprene concentration of 62 mg/L.
(§3) During the test period, algae was kept on a 12-hour light: 12-hour dark photoperiod at 26.8° C. The pH and specific gravity of the 20% artificial seawater solution were measured to be 8.92±0.02 and 1.013 respectively.
(§4) Optical density measurements were taken on days 5, 6, and 12 after inoculation. Each jar was first agitated either by gently rocking back and forth until minimal algal residue could be seen on the bottom. Occasionally, a sterile tube or pipette was employed to scrape some residue into the solution. Once minimal algal residue remained in the jar, a 5-mL sample of solution was pipetted out with a sterile pipette. The sample's optical density was read with a spectrometer at 680 nm. Control and A+R sample readings were blanked with a solution of 10 mL modified Bristol medium per 40 mL 20% artificial seawater. A+M and A+R+M sample readings were blanked with a solution of 10 mL modified Bristol medium per 38.5 mL 20% artificial seawater and 1.5 mL methoprene-seawater solution. A+R+2M sample readings were blanked with a solution of 10 mL modified Bristol medium per 36.9 mL 20% artificial seawater and 3.1 mL methoprene-seawater solution. Optical density readings were taken in absorbance units.

Brachionus sp. rotifers [5] = test: Live rotifer count by microscopy in 30-μL samples (Example 1); assay type: in vivo; conditions: 13 days after inoculation
Description: One day prior to the general test period, the rotifer concentration was determined. The rotifer concentration of the bottle was estimated by counting rotifers in three trials of 30-μL samples with a Swift microscope at 1.25× magnification. Rotifer concentration was estimated again with the same procedure on the day of inoculation.
12 days after inoculation a 5-mL sample was extracted from each of the 15 jars containing rotifer solution. 24 hours after extraction, these samples were examined with microscopy. From each of the fifteen 5-mL samples, three 30-μL samples were pipetted onto glass slides and the rotifers were counted with a stereoscopic microscope at 2×-4× magnification.

Brachionus sp. rotifers [6] = test: 12-day mason jar test, algal optical density at 680 nm, algae with rotifers (Example 1); assay type: in vivo
Description: as §2, §3, §4

humans or algae = conditions: background statement; cited from earlier work
[7] = background statement; cited from earlier work
Brachionus plicatilis = conditions: Marcial et al. (2005), lower concentration of the project is 30 mg/L; cited from earlier work
rotifers [8] = test: Rotifer-infested photobioreactor, methoprene with acetone (Example 3); assay type: in vivo; conditions: methoprene 30 mg/L or less with acetone between 1 and 27 ml/L; present-tense example
Description: Methoprene at a concentration of 30 mg/L or less is added to the algal solution in a rotifer-infested photobioreactor. Acetone at a concentration between 1 and 27 ml/L is also added as an adjuvant. At these concentrations, acetone may (while subjecting the algal crop to minimal harm) act as a surfactant, allowing methoprene to become more dissolved. […] Wait approximately 30 days before renewing the media so that methoprene can biodegrade sufficiently before disposal of water.

CC1=CCC2CC1C2(C)C (stereo not drawn) [alpha-pinene]
control of rotifers in the aquaculture (rotofers): controlled | control of Daphnia magna in the aquaculture (Daphnia magna): controlled

CC(C)=O [acetone]
mean optical density on day 12 compared with control group (Chlorella sp. [1]): not significantly different | inhibition of algal growth (Chlorella sp. [1]): Neither methoprene, resmethrin, nor acetone, when applied without rotifers, was found to inhibit algal growth; also recorded: not found to inhibit algal growth

CC(C)=CC1C(C(=O)OCc2coc(Cc3ccccc3)c2)C1(C)C (stereo not drawn) [resmethrin]
harm to rotifers (rotifers [2]): significantly harmful to rotifers | mean optical density on day 12 compared with control group (Chlorella sp. [1]): not significantly different | inhibition of algal growth (Chlorella sp. [1]): Neither methoprene, resmethrin, nor acetone, when applied without rotifers, was found to inhibit algal growth; also recorded: not found to inhibit algal growth | mean optical density at day 12 compared with control (Chlorella sp. [1]; group 2R−R as printed: 2.0 mg/L resmethrin, no rotifers): significantly lower

COC(C)(C)CCC[C@H](C)C/C=C/C(C)=C/C(=O)OC(C)C (racemic) [methoprene]
harm to rotifers (rotifers [2]): significantly harmful to rotifers | growth reduction of Chlorella sp. (Chlorella sp. [3]): No growth reduction | Mean optical density ± one standard deviation (Chlorella sp. [4]; 5 days after inoculation): 0.84 ± 0.02 | Mean optical density ± one standard deviation (Chlorella sp. [4]; 6 days): 0.89 ± 0.01 | Mean optical density ± one standard deviation (Chlorella sp. [4]; 12 days): 0.93 ± 0.02 | average specific growth rate of algae (Chlorella sp. [4]; between 5 and 12 days after inoculation): 0.0065 log(AU)/day | live rotifers in 30-μL samples (Brachionus sp. rotifers [5]; A+R+2M: 62 mg/L methoprene): zero | live rotifers in 30-μL samples (Brachionus sp. rotifers [5]; A+R+M: 30 mg/L methoprene, A+R group 8.7 per 30 μL): zero | Mean optical density ± one standard deviation (Brachionus sp. rotifers [6]; A+R+2M: 62 mg/L methoprene with rotifers, 5 days): 0.6 ± 0.2 | Mean optical density ± one standard deviation (Brachionus sp. rotifers [6]; A+R+2M: 62 mg/L methoprene with rotifers, 6 days): 0.7 ± 0.1 | Mean optical density ± one standard deviation (Brachionus sp. rotifers [6]; A+R+2M: 62 mg/L methoprene with rotifers, 12 days): 0.7 ± 0.2 | Mean optical density ± one standard deviation (Brachionus sp. rotifers [6]; A+R+M: 30 mg/L methoprene with rotifers, 5 days): 0.6 ± 0.2 | Mean optical density ± one standard deviation (Brachionus sp. rotifers [6]; A+R+M: 30 mg/L methoprene with rotifers, 6 days): 0.7 ± 0.2 | Mean optical density ± one standard deviation (Brachionus sp. rotifers [6]; A+R+M: 30 mg/L methoprene with rotifers, 12 days): 0.7 ± 0.2 | average specific growth rate of algae (Brachionus sp. rotifers [6]; A+R+M: 30 mg/L methoprene with rotifers, between 5 and 12 days after inoculation): 0.0078 log(AU)/day | average optical density (Brachionus sp. rotifers [6]; double methoprene concentration with rotifers (A+R+2M, 62 mg/L), 12 days): 0.71 AU | average optical density (Brachionus sp. rotifers [6]; methoprene with rotifers (A+R+M, 30 mg/L), 12 days, rotifers only 0.47 AU, control 0.96 AU): 0.69 AU | toxicity to humans or algae (humans or algae): practically non-toxic | mean optical density on day 12 compared with control group (Chlorella sp. [1]): not significantly different | inhibition of algal growth (Chlorella sp. [1]): Neither methoprene, resmethrin, nor acetone, when applied without rotifers, was found to inhibit algal growth | inhibition of algal growth (Chlorella sp. [1]; listed as Methoprene): not found to inhibit algal growth | mean optical density at day 12 compared with control (Chlorella sp. [1]; group 5M+R: 5 mg/L methoprene, rotifers): significantly lower | degradation in sunlight [7]: rapidly degrades in sunlight | 24-hr LC50 (Brachionus plicatilis): lower methoprene concentration utilized in this project | effect on rotifers (rotifers [8]): eliminates rotifers

From patent US8216825B2, “Aquaculture biocide methods and compositions” (priority 2010, dated 2012)
